According to patent US12583870B2, “Azaheteroaryl compound and application thereof” (SHANGHAI BLUERAY BIOPHARMA CO., LTD., priority 2019, dated 2026):

Experiments:
[1] = tested on: trimethylation level of histone H3K27 in G401 cells; experiment: ELISA (H3K27 trimethylation) analysis in G401 cells; format: cell-based; conditions: Homo sapiens, G-401, 72 hours, H3K27me3 standardized to H3
Method in brief: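 Cells exposed 72 h to 10-point 3-fold dilutions, top 10 μM, 0.5% final DMSO. Acid-extracted histones assayed by ELISA (ECL) for H3K27me3, normalized to total H3 and to DMSO control; IC50 from dose-response fit.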

KARPAS-422 cells = experiment: Cell proliferation analysis, KARPAS-422, 13 days, CellTiter-Glo; format: cell-based; conditions: Homo sapiens, 312 h
Method in brief: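 KARPAS-422 cells were treated with PRC2 inhibitors over 9 three-fold dilutions from 10 μM top (0.5% DMSO, duplicates) in RPMI-1640 with 15% FBS at 37 °C. Every 3–4 days cells were counted and reseeded at 1×10^4/well with fresh compound. Viability was read by CellTiter-Glo luminescence on day 13.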

[2] = biological target: T1, EED protein (His6-tagged full-length) binding to H3K27me3 polypeptide (Homo sapiens, UniProt O75530); experiment: AlphaScreen evaluation of blocking the binding of EED to H3K27Me3; conditions: EED 60 nM, biotinylated H3K27me3 75 nM, 30 minutes incubation
T1 construct: His6-tagged full-length EED protein (441 amino acids)
Method in brief: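 His6-tagged full-length EED (60 nM working stock) and biotin-H3K27me3 peptide aa 19–33 (75 nM working stock) incubated 30 min RT with 9-point 3-fold compound series in 25 mM HEPES pH 8.0, 50 mM NaCl, 0.015% Tween 20, 0.5% BSA. Ni-chelate acceptor and streptavidin donor beads (5 μg/mL each), 1 h dark; IC50 from dose-response fit. Biotin-(His)6 counterscreen checked signal interference.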

T1 sequence (O75530 whole entry): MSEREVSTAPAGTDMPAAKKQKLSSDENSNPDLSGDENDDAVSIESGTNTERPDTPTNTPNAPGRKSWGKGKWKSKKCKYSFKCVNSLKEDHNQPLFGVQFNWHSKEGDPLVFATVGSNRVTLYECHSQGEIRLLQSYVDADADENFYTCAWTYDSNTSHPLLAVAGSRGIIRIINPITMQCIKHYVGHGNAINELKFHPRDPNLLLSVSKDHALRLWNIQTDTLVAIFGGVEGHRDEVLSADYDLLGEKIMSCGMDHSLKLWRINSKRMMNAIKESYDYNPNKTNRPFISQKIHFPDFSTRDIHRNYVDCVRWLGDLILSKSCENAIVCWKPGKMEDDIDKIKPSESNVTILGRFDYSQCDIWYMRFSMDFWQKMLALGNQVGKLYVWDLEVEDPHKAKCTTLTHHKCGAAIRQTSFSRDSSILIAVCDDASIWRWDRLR

**Q.** What does the source list for `O=S1(=O)C=c2ccc(-c3cnc(NCc4c(F)ccc5c4[C@H]4C[C@H]4O5)n4cnnc34)cc2=C1` [5-(5-((((1aR,6bR)-5-fluoro-1a,6b-dihydro-1H-cyclopropa[b]benzofuran-6-yl)methyl)amino)-[1,2,4]triazolo[4,3-c]pyrimidin-8-yl)benzo[c]thiophene 2,2-dioxide]?
**A.** IC50 [1]: 0.0006 µM; IC50 (KARPAS-422 cells): 0.0008 µM; IC50 [2]: 0.0063 µM

**Q.** Which IC50 [1] does the source give for `Fc1ccc2c(c1CNc1ncc(-c3cccn4ncnc34)c3nncn13)[C@H]1C[C@H]1O2` [8-([1,2,4]triazolo[1,5-a]pyridin-8-yl)-N-(((1aR,6bR)-5-fluoro-1a,6b-dihydro-1H-cyclopropa[b]benzofuran-6-yl)methyl)-[1,2,4]triazolo[4,3-c]pyrimidin-5-amine] here?
**A.** 0.0007 µM

**Q.** And the IC50 (KARPAS-422 cells)?
**A.** 0.0019 µM

**Q.** And the IC50 [2]?
**A.** 0.004 µM

**Q.** Which results are given for `O=S1(=O)C=c2ccc(-c3cnc(NCc4c(F)ccc5c4CCO5)n4cnnc34)cc2=C1` [5-(5-(((5-fluoro-2,3-dihydrobenzofuran-4-yl)methyl)amino)-[1,2,4]triazolo[4,3-c]pyrimidin-8-yl)benzo[c]thiophene 2,2-dioxide]?
**A.** IC50 [1]: 0.0003 µM; IC50 (KARPAS-422 cells): 0.0004 µM; IC50 [2]: 0.0049 µM

**Q.** How did the IC50 [1] turn out when `Fc1cc(-c2cnc(NCc3c(F)ccc4c3CCO4)n3cnnc23)c2ncc(F)n2c1` [8-(3,6-difluoroimidazo[1,2-a]pyridin-8-yl)-N-((5-fluoro-2,3-dihydrobenzofuran-4-yl)methyl)-[1,2,4]triazolo[4,3-c]pyrimidin-5-amine] was run?
**A.** 0.0077 µM

**Q.** What about the IC50 (KARPAS-422 cells) of the same compound?
**A.** 0.0075 µM

**Q.** And the IC50 [2]?
**A.** 0.0052 µM

**Q.** How did the IC50 [1] turn out when `CC1=C(C)S(=O)(=O)c2c(F)cc(-c3cnc(NCc4c(F)ccc5c4CCO5)n4cnnc34)cc21` [7-fluoro-5-(5-(((5-fluoro-2,3-dihydrobenzofuran-4-yl)methyl)amino)-[1,2,4]triazolo[4,3-c]pyrimidin-8-yl)-2,3-dimethylbenzo[b]thiophene 1,1-dioxide] was run?
**A.** 0.014 µM

**Q.** What about the IC50 (KARPAS-422 cells) of the same compound?
**A.** 0.0087 µM

**Q.** What about the IC50 [2] of the same compound?
**A.** 0.002 µM

**Q.** Which results are given for `NCCC1=CS(=O)(=O)c2ccc(-c3cnc(NCc4c(F)ccc5c4[C@@H]4C[C@@H]4O5)n4cnnc34)cc21` [3-(2-aminoethyl)-5-(5-((((1aS,6bS)-5-fluoro-1a,6b-dihydro-1H-cyclopropa[b]benzofuran-6-yl)methyl)amino)-[1,2,4]triazolo[4,3-c]pyrimidin-8-yl)benzo[b]thiophene 1,1-dioxide]?
**A.** IC50 [1]: 0.075 µM; IC50 (KARPAS-422 cells): 0.033 µM; IC50 [2]: 0.0054 µM

**Q.** `COC(=O)c1ccc(-c2cnc(NCc3c(F)ccc4c3CCO4)n3cnnc23)c2nccn12` [Methyl 8-(5-(((5-fluoro-2,3-dihydrobenzofuran-4-yl)methyl)amino)-[1,2,4]triazolo[4,3-c]pyrimidin-8-yl)imidazo[1,2-a]pyridine-5-carboxylate] was tested. Which IC50 [1] did it give?
**A.** 0.0035 µM

**Q.** And the IC50 (KARPAS-422 cells)?
**A.** 0.0051 µM

**Q.** And the IC50 [2]?
**A.** 0.008 µM

**Q.** For `Fc1cc(-c2cnc(NCc3c(F)ccc4c3CCO4)n3cnnc23)c2nc(C(F)(F)F)cn2c1` [N-((5-fluoro-2,3-dihydrobenzofuran-4-yl)methyl)-8-(6-fluoro-2-(trifluoromethyl)imidazo[1,2-a]pyridin-8-yl)-[11,2,4]triazolo[4,3-c]pyrimidin-5-amine], which IC50 [1] is on record?
**A.** 0.0171 µM

**Q.** And the IC50 (KARPAS-422 cells)?
**A.** 0.0095 µM

**Q.** What about the IC50 [2] of the same compound?
**A.** 0.0023 µM

**Q.** `Fc1ccc2c(c1CNc1ncc(-c3ccc4nncn4c3)c3nncn13)[C@H]1C[C@H]1O2` [8-([1,2,4]triazolo[4,3-a]pyridin-6-yl)-N-(((1aR,6bR)-5-fluoro-1a,6b-dihydro-1H-cyclopropa[b]benzofuran-6-yl)methyl)-[1,2,4]triazolo[4,3-c]pyrimidin-5-amine] was tested. Which IC50 [1] did it give?
**A.** 0.0064 µM

**Q.** What about the IC50 (KARPAS-422 cells) of the same compound?
**A.** 0.0431 µM

**Q.** And the IC50 [2]?
**A.** 0.0042 µM

**Q.** With `O=S1(=O)C=Cc2cc(-c3cnc(NCc4c(F)ccc5c4[C@H]4C[C@H]4O5)n4cnnc34)ccc21` [5-(5-((((1aR,6bR)-5-fluoro-1a,6b-dihydro-1H-cyclopropa[b]benzofuran-6-yl)methyl)amino)-[1,2,4]triazolo[4,3-c]pyrimidin-8-yl)benzo[b]thiophene 1,1-dioxide] as the compound, how does the IC50 [1] read?
**A.** 0.0008 µM

**Q.** What about the IC50 (KARPAS-422 cells) of the same compound?
**A.** 0.0007 µM

**Q.** And the IC50 [2]?
**A.** 0.0038 µM

**Q.** For `CC(=O)c1c(C)nc2c(-c3cnc(NCc4c(F)ccc5c4CCO5)n4cnnc34)cc(F)cn12` [1-(6-fluoro-8-(5-(((5-fluoro-2,3-dihydrobenzofuran-4-yl)methyl)amino)-[1,2,4]triazolo[4,3-c]pyrimidin-8-yl)-2-methylimidazo[1,2-a]pyridin-3-yl)ethan-1-one], which IC50 [1] is on record?
**A.** 0.0015 µM

**Q.** What about the IC50 (KARPAS-422 cells) of the same compound?
**A.** 0.0011 µM

**Q.** What about the IC50 [2] of the same compound?
**A.** 0.016 µM

**Q.** `Cc1ccc(-c2cnc(NCc3c(F)ccc4c3CCO4)n3cnnc23)c2ncc(CC(N)=O)n12` [2-(8-(5-(((5-fluoro-2,3-dihydrobenzofuran-4-yl)methyl)amino)-[1,2,4]triazolo[4,3-c]pyrimidin-8-yl)-5-methylimidazo[1,2-a]pyridin-3-yl)acetamide] was tested. Which IC50 [1] did it give?
**A.** 0.003 µM

**Q.** What about the IC50 (KARPAS-422 cells) of the same compound?
**A.** 0.0032 µM

**Q.** What about the IC50 [2] of the same compound?
**A.** 0.0118 µM

**Q.** With `NC(=O)c1cnc2c(-c3cnc(NCc4c(F)ccc5c4CCO5)n4cnnc34)cccn12` [8-(5-(((5-fluoro-2,3-dihydrobenzofuran-4-yl)methyl)amino)-[1,2,4]triazolo[4,3-c]pyrimidin-8-yl)imidazo[1,2-a]pyridine-3-carboxamide] as the compound, how does the IC50 [1] read?
**A.** 0.0041 µM

**Q.** And the IC50 (KARPAS-422 cells)?
**A.** 0.0037 µM

**Q.** What about the IC50 [2] of the same compound?
**A.** 0.0035 µM

**Q.** How did the IC50 [1] turn out when `Fc1ccc2c(c1CNc1ncc(-c3cnn4cccnc34)c3nncn13)CCO2` [N-((5-fluoro-2,3-dihydrobenzofuran-4-yl)methyl)-8-(pyrazolo[1,5-a]pyrimidin-3-yl)-[1,2,4]triazolo[4,3-c]pyrimidin-5-amine] was run?
**A.** 0.0104 µM

**Q.** And the IC50 (KARPAS-422 cells)?
**A.** 0.0097 µM

**Q.** What about the IC50 [2] of the same compound?
**A.** 0.0021 µM

**Q.** Which results are given for `CCOC(=O)c1cnc2c(-c3cnc(NCc4c(F)ccc5c4CCO5)n4cnnc34)cccn12` [Ethyl 8-(5-(((5-fluoro-2,3-dihydrobenzofuran-4-yl)methyl)amino)-[1,2,4]triazolo[4,3-c]pyrimidin-8-yl)imidazo[1,2-a]pyridine-3-carboxylate]?
**A.** IC50 [1]: 0.006 µM; IC50 (KARPAS-422 cells): 0.004 µM; IC50 [2]: 0.0023 µM

**Q.** Which results are given for `N#Cc1cnc2c(-c3cnc(NCc4c(F)ccc5c4CCO5)n4cnnc34)cccn12` [8-(5-(((5-fluoro-2,3-dihydrobenzofuran-4-yl)methyl)amino)-[1,2,4]triazolo[4,3-c]pyrimidin-8-yl)imidazo[1,2-a]pyridine-3-carbonitrile]?
**A.** IC50 [1]: 0.0032 µM; IC50 (KARPAS-422 cells): 0.0035 µM; IC50 [2]: 0.0047 µM
